The record followed here is PubChem BioAssay (NCI).

Test in all cases: NCI tumour cell line growth inhibition, 48 h
The test system of assay [1] is DLD-1 colon.
Assay [2] has as its system HOP-18 NSCLC.
Assay [3] has as its system KM20L2 colon.
For assay [4], the system named is LXFL 529 NSCLC.
For assay [5], the system named is M19-MEL melanoma.
Assay [6] relates to RXF-631 renal.
Assay [7] concerns SNB-78 CNS.
In assay [8] the test system is XF 498 CNS.
Assay [9] has as its system DMS 114 small cell lung.
Assay [10] concerns P388 leukemia.
Assay [11] deals with P388/ADR leukemia.
For assay [12], the system named is SN12K1 renal.

SMILES strings stand for the structures.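 96-well plates; 48 h exposure; 5 concentrations. Endpoints by linear interpolation between flanking doses. Not reached: highest tested concentration assigned. TGI: total growth inhibition.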

Take `CC(=O)OC1/C=C(\C)C(OC(C)=O)C/C=C(/C)CCC2C(/C=C/C1=O)C2(C)C` (stereo not given): the TGI in [1], in assay [2], in assay [3], in [4], in assay [5] and in assay [6] was > 100 µM in each case. Further, the TGI in [7] and in [8] was > 100 µM each time.
Consider `O=c1sc2ccccc2n1CC1CS1` (stereo not given), for which the TGI in assay [9], in [3], in assay [5] and in assay [8] was > 100 µM throughout.
As for `COc1cc2c(cc1OC)C(CC1=C(c3ccccc3)CN3CCc4cc(OC)c(OC)cc4C3C1)NCC2` (stereo not given), the TGI in assay [1] came out at 34.9 µM; in assay [9], 30.3 µM; in [2], 30.9 µM; in assay [3], 28.9 µM; in assay [4], 31.1 µM; in assay [5] it was 30.7 µM. The TGI in assay [6] stood at 30.4 µM; in assay [7] it was 31.9 µM; in [8], 25.9 µM.
Take `O=C1c2cccc3c2C(=O)c2c(cccc21)OCCOCCOCCOCCO3`: the TGI in [1], in [9], in [2], in [3], in [4] and in [5] was > 100 µM each time. Moreover, the TGI in [6] and in assay [7] was > 100 µM each time.
Regarding `CC(C)Cc1ccc(C(C)C(=O)N2CCN(/C=C/c3ccccc3)CC2)cc1` (stereo not given), the TGI came to 27.3 µM in assay [1]; 24.6 µM in assay [9]; 35.9 µM in assay [2]; 29.9 µM in assay [3]; 29.7 µM in [5]; 29.8 µM in assay [10]. Moreover, the TGI came out at 42.1 µM in [11], 27.1 µM in assay [12], 46.7 µM in assay [7] and 27.3 µM in assay [8].
As to `COc1ccc(/C=C2\CCNC2=O)cc1`, the TGI in [1], in assay [9], in [2], in assay [3], in assay [5] and in [10] was > 100 µM throughout. Moreover, the TGI in assay [11], in [12], in [7] and in assay [8] was > 100 µM in each case.
Turning to `CCCC(=O)OCC1OC(n2ccc(N)nc2=O)C(OC(=O)CCC)C1OC(=O)CCC` (stereo not given), the TGI in assay [1] is > 100 µM; in assay [9], > 100 µM; in assay [2], > 100 µM; in [3], > 100 µM; in assay [5] it was > 100 µM; in assay [10], 13.9 µM. Also, the TGI in [11], in assay [12] and in assay [7] was > 100 µM in each case.
In the case of `C=CCc1c(O)c2c(c3oc(=O)cc(C)c13)CC(C)O2` (stereo not given), the TGI in assay [1], in [9], in assay [2], in [3], in assay [4] and in assay [5] was > 100 µM in each case. The TGI in [7] was > 100 µM.
